Reference: US20240343747A1, “Heteroaryl compounds as inhibitors of TYK2, composition and application thereof” (Accro Bioscience (HK) Limited, priority 2021, published 2024)

How the values were obtained:
JAK1 JH1 = JAK1 JH1 (Homo sapiens (Human), UniProt P23458); assay: Competitive binding assay (kinase-tagged phage, qPCR), JAK1 JH1
Procedure: For most assays, kinase-tagged T7 phage strains were prepared in an E. coli host derived from the BL21 strain. E. coli were grown to log-phase and infected with T7 phage and incubated with shaking at 32° C. until lysis. The lysates were centrifuged and filtered to remove cell debris. The remaining kinases were produced in HEK-293 cells and subsequently tagged with DNA for qPCR detection. Streptavidin coated magnetic beads were treated with biotinylated small molecule ligands for 30 minutes at room temperature to generate affinity resins for kinase assays. The liganded beads were blocked with excess biotin and washed with blocking buffer (SeaBlock (Pierce), 1% BSA, 0.05% Tween 20, 1 mM DTT) to remove unbound ligand and to reduce non-specific binding. […] Test compounds were prepared as 111X stocks in 100% DMSO. Dissociation constants (Kds) were determined using an 11-point 3-fold compound dilution series with three DMSO control points. All compounds for Kd measurements are distributed by acoustic transfer (non-contact dispensing) in 100% DMSO. The compounds were then diluted directly into the assays such that the final concentration of DMSO was 0.9%. All reactions performed in polypropylene 384-well plate. Each was a final volume of 0.02 ml. The assay plates were incubated at room temperature with shaking for 1 hour and the affinity beads were washed with wash buffer (1×PBS, 0.05% Tween 20). The beads were then re-suspended in elution buffer (1×PBS, 0.05% Tween 20, 0.5 μM nonbiotinylated affinity ligand) and incubated at room temperature with shaking for 30 minutes. The kinase concentration in the eluates was measured by qPCR.
An 11-point 3-fold serial dilution of each test compound was prepared in 100% DMSO at 100× final test concentration and subsequently diluted to 1× in the assay (final DMSO concentration=1%). Most Kds were determined using a compound top concentration=30,000 nM. If the initial Kd determined was <0.5 nM (the lowest concentration tested), the measurement was repeated with a serial dilution starting at a lower top concentration.
Binding constants (Kds) were calculated with a standard dose-response curve using the Hill equation: […]
The Hill Slope was set to −1.
Curves were fitted using a non-linear least square fit with the Levenberg-Marquardt algorithm.

[1] = Pharmacokinetic evaluation in beagle dog; type: in vivo; conditions: for F / AUC / Vd / clearance / half-life / Cmax / Tmax: beagle dog; for plasma exposure in beagle dog (in words): conclusion from Table 11; for AUC / Vd / clearance / half-life / Cmax / Tmax: plasma
Procedure: The beagle dog pharmacokinetic characteristics of compounds were tested by standard protocols. The candidate compounds were made into clear solution for single intravenous injection (i.v.) and suspension for oral administration (p.o.). Intravenous and oral vehicle is 5% DMSO+10% Solutol+85% Saline. The experiment used 9 dog and 3 dog for intravenous at a dose of 1 mg/kg. Plasma samples were collected at 0 h (before dosing) and 0.083 h, 0.25 h, 0.5 h, 1 h, 2 h, 4 h, 8 h, 24 h after dosing. 3 dog were orally administrated at a dose of 5 mg/kg and 3 dog were orally administrated at a dose of 15 mg/kg. Plasma samples were collected at 0 h (before dosing) and 0.25 h, 0.5 h, 1 h, 2 h, 4 h, 6 h, 8 h, 24 h after dosing.
Blood samples were placed in tubes containing K2-EDTA and stored on ice until centrifuged. The blood samples were centrifuged at 6800 g for 6 minutes at 2-8° C. within 1 h after collected, and stored frozen at approximately −80° C.
The analytical results were confirmed using quality control samples for intra-assay variation. The accuracy of >66.7% of the quality control samples and 50% of all QC samples at each concentration level were between 80-120% of the known value(s).
Standard set of parameters including area under the curve (AUC(0-t) and AUC(0-∞)), elimination half-live (T1/2), maximum plasma concentration (Cmax), time to reach maximum plasma concentration (Tmax) were calculated using noncompartmental analysis modules in FDA certified pharmacokinetic program Phoenix WinNonlin 7.0 (Pharsight, USA) by the Study Director.

[2] = tested on: production of CXCL-10 stimulated by IFNα in PBMC; assay: ELISA: production of CXCL-10 stimulated by IFNα in PBMC; type: cell-based; conditions: CXCL-10 production stimulated by IFNα in PBMC; for IC50: ELISA
Procedure: • 1. Soak plate: Add 300 μL 1×washing solution and let stand for 30 seconds. After discarding the washing solution, dry the microporous plate on absorbent paper. • 2. Add standard: Add 100 μL of 2-fold standard to standard well. Add 100 μL standard dilution (serum/plasma sample) or culture medium (cell culture supernatant sample) to blank well. • 3. Add sample: Serum/plasma: Add 50 μL 1×assay buffer and 50 μL sample to sample well. Cell culture supernatant: Add 100 μL cell culture supernatant to sample well. • 4. Add detection antibody: Add 50 μL diluted detection antibody (1:100 diluted) to each well. Make sure steps 4, 5 and 6 are added continuously without interruption. The sampling process was completed within 15 minutes. • 5. Incubation: Use sealing plate film to seal the plate. shake at 300 rpm and incubate for 2 hours at room temperature. • 6. Washing: Discard the liquid, add 300 μL of washing solution and wash the plate 6 times. pat dry on blotting paper after each wash. To obtain the desired experimental performance, the residual liquid must be completely removed. • 7. Enzyme addition: Add 100 μL diluted horseradish peroxidase labeled streptavidin to each well (1:100 diluted). • 8. Incubation: Seal the plate with a new sealing film. shake at 300 rpm and incubate at room temperature for 45 minutes. • 9. Washing. Repeat step […]. • 10. Add substrate for color development: Add 100 μL of color development substrate TMB to each well, keep away from light, and incubate at room temperature for 5-30 minutes. • 11. Add Stop Solution: Add 100 μL stop solution to each well. The color changed from blue to yellow. If the color appears green or the color changes unevenly, gently tap the frame of the plate to mix well. • 12. Assay readout: Within 30 minutes, perform dual wavelength detection using a microplate reader to measure the OD at the absorption maximum at 450 nm and reference wavelengths at 570 nm or 630 nm. The calibrated OD value is the measured value at 450 nm minus the measured value at 570 nm or 630 nm.

TYK2/JAK1 pathway = assay: Selectivity: TYK2/JAK1 pathway, IFN-α-induced p-STAT1 in human PBMC, western blot; type: cell-based
Procedure: Commercial human PBMC (peripheral blood mononuclear cells) were centrifuged (400 g) for 10 min, counted and planted on 6-well plates (5 million/well). Then, the compounds to be tested were added for 2 hours and IFN-α (100 ng/mL) was added to stimulate cells for 15 minutes. Protein lysate was used to lysate cells, and BCA kit was used for protein quantification. Finally, p-STAT1/STAT1, P-TYK2/TYK2 and internal reference protein B-Actin were detected by Western blot.

Chain of JAK1 JH1 (P23458 875-1153): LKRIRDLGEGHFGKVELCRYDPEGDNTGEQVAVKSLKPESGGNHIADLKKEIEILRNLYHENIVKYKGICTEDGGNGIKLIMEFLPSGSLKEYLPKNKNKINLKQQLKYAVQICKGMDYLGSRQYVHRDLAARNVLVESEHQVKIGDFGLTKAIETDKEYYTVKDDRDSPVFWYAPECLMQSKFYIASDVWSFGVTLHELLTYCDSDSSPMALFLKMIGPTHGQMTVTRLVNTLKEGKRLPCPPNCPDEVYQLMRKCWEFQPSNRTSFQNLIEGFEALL

| Kd (JAK1 JH1) | F ([1]; p.o. 5 mg/kg) | F ([1]; p.o. 15 mg/kg) | plasma exposure in beagle dog (in words) [1] | AUC ([1]; iv, i.v. 1 mg/kg) | Vd ([1]; iv, i.v. 1 mg/kg) | clearance ([1]; iv, i.v. 1 mg/kg) | half-life ([1]; iv, i.v. 1 mg/kg) | AUC ([1]; po, p.o. 5 mg/kg) | Cmax ([1]; po, p.o. 5 mg/kg) | Tmax ([1]; po, p.o. 5 mg/kg) | AUC ([1]; po, p.o. 15 mg/kg) | Cmax ([1]; po, p.o. 15 mg/kg) | Tmax ([1]; po, p.o. 15 mg/kg) | SMILES | activity compared with BMS986165 [2] | IC50 [2] | inhibition of TYK2/JAK1 pathway compared with BMS986165 (TYK2/JAK1 pathway; IFN-α) | inhibition of downstream STAT1 phosphorylation induced by IFN-α (TYK2/JAK1 pathway; IFN-α 100 ng/mL, western blot) |
| --- | --- | --- | --- | --- | --- | --- | --- | --- | --- | --- | --- | --- | --- | --- | --- | --- | --- | --- |
| > 30000 nM | – | – | – | – | – | – | – | – | – | – | – | – | – | CCC(=O)c1cnc(NC(=O)C2CC2)cc1Nc1cccc(-c2cc(P(C)(C)=O)n(C)n2)c1OC [Compound B2, N-(4-((3-(5-(dimethylphosphoryl)-1-methyl-1H-pyrazol-3-yl)-2-methoxyphenyl)amino)-5-propionylpyridin-2-yl)cyclopropanecarboxamide] | – | – | – | – |
| > 30000 nM | 46% | 21% | excellent plasma exposure | 9240 ng·h/mL | 0.33 L/kg | 1.9 mL/min/kg | 2.2 h | 21300 ng·h/mL | 3980 ng/mL | 0.83 h | 28600 ng·h/mL | 4870 ng/mL | 0.67 h | CCC(=O)c1cnc(NC(=O)C2CC2)cc1Nc1cccc(-c2cc(P(=O)(C3CC3)C3CC3)n(C)n2)c1OC [Compound B37, N-(4-((3-(5-(dicyclopropylphosphoryl)-1-methyl-1H-pyrazol-3-yl)-2-methoxyphenyl)amino)-5-propionylpyridin-2-yl)cyclopropanecarboxamide] | more active than BMS986165 | 28.2 nM | better inhibitory activity than BMS986165 | effectively inhibit |
| – | 79% | 120% | excellent plasma exposure | 4900 ng·h/mL | 0.56 L/kg | 4 mL/min/kg | 2.1 h | 19400 ng·h/mL | 3100 ng/mL | 1 h | 88000 ng·h/mL | 9870 ng/mL | 1.7 h | [2H]C([2H])([2H])NC(=O)c1nnc(NC(=O)C2CC2)cc1Nc1cccc(-c2cc(P(=O)(C3CC3)C3CC3)n(C)n2)c1OC [Compound B41, 6-(cyclopropanecarboxamido)-4-((3-(5-(dicyclopropylphosphoryl)-1-methyl-1H-pyrazol-3-yl)-2-methoxyphenyl)amino)-N-(methyl-d3)pyridazine-3-carboxamide] | – | 39.5 nM | – | – |
